Laboratory results published in article PMC5660230, “Combined x-ray crystallography and computational modeling approach to investigate the Hsp90 C-terminal peptide binding to FKBP51” (Scientific Reports, 2017).
Entries after “also recorded” stand apart in the source; their conditions may differ. Residues, ends and D or L forms follow the SMILES beside them.

Assays:
[1] = system: FKBP51; experiment: Differential scanning fluorimetry (DSF), melting temperature shift of FKBP51; format: binding, human; conditions: FKBP51 0.1 mg/ml, 5X SYPRO orange, 0.5X PBS
Procedure: (§1) Differential scanning fluorimetry was performed using Bio-Rad CFX96 qPCR following a well-established protocol. Briefly, 25 µl of solution containing purified FKBP51 at a concentration of 0.1 mg/ml, 5X SYPRO orange (Life Technologies), and Hsp90 C-terminal peptide ranging from 0–500 µM in 0.5X PBS was transferred to a 96-well PCR plate in triplicate. The plate was centrifuged, sealed and the fluorescence was measured using the FRET channel between 20 and 80 °C with an increment of 0.2 °C in each cycle. The melting temperature was determined from the first derivative peaks of the melting curve using Bio-Rad CFX96 manager software. Further, the dissociation constant of the complex between FKBP51 and C90 was determined by fitting the resulting data using single site ligand binding model[35] with the bottom (T1) and top (T2) temperatures fitting to 43.8 and 48.5 °C, respectively. The concentration of FKBP51 (2 µM) was used as the value of the constant P. The fitting was performed using GraphPad Prism, version 7.02. Additionally, we incubated the FKBP51 with 200 µM of control peptide (DDDDDDDDDD) in a similar way.

[2] = biological target: T1, FKBP51 (TPR domain) (Homo sapiens, UniProt Q13451); experiment: Differential scanning fluorimetry (DSF), dissociation constant of FKBP51-C90 complex under thermal denaturation; format: binding
T1 construct: FKBP51 full length DNA (IMAGE cDNA clone: 5753397 5′) was PCR amplified; GST (N, cleaved yes); made in house; host or cells: E. coli BL21
T1 sequence (Q13451 1-457): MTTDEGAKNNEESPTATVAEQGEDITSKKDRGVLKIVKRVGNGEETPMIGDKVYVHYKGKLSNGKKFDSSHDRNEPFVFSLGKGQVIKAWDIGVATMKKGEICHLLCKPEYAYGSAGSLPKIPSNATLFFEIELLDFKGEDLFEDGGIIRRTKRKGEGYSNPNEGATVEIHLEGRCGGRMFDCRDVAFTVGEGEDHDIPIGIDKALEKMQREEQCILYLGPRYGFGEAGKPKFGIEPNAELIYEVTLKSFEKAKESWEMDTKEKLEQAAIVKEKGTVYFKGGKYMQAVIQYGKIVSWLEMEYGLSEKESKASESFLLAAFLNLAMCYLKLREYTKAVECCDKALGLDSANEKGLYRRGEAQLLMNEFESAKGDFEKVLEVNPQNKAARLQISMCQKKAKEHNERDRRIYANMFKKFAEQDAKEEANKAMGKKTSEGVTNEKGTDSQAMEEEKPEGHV
Procedure: as §1

| Compound | ΔTm (first melting point) ([1]; C90 250 µM vs 0 µM, triplicate, first derivative of melting curve) [°C] | first melting point of FKBP51 in presence of peptide ([1]; C90 250 µM, triplicate, without peptide 44 °C / 43.8 °C) [°C] | second melting point of FKBP51 in presence of peptide ([1]; C90 250 µM, triplicate, without peptide 58.6 °C / 57.8 °C) | Kd ([2]; DSF under thermal denaturation, full-length FKBP51 0.1 mg/ml (2 µM), 5X SYPRO orange, 0.5X PBS, C90 0–250 µM / 0–500 µM (method), triplicate, 20–80 °C, 0.2 °C increments, Tm by first derivative, single site ligand binding model, T1 43.8 and T2 48.5 °C, R^2 0.99) [µM] | dissociation constant compared with reported FKBP38-MEEVD peptide ([2]; DSF value of FKBP51-C90 complex compared with literature value of FKBP38-MEEVD peptide) | change in melting point of FKBP51 (control peptide) ([1]; control peptide 200 µM vs 0 µM) |
| --- | --- | --- | --- | --- | --- | --- |
| CSCC[C@H](NC(=O)[C@H](CCCNC(=N)N)NC(=O)[C@H](CO)NC(=O)[C@@H](NC(=O)[C@H](CC(=O)O)NC(=O)[C@H](Cc1c[nH]cn1)NC(=O)[C@H](Cc1c[nH]cn1)NC(=O)[C@H](Cc1c[nH]cn1)NC(=O)[C@H](Cc1c[nH]cn1)NC(=O)[C@H](Cc1c[nH]cn1)NC(=O)[C@@H](N)Cc1c[nH]cn1)[C@@H](C)O)C(=O)N[C@@H](CCC(=O)O)C(=O)N[C@@H](CCC(=O)O)C(=O)N[C@H](C(=O)N[C@@H](CC(=O)O)C(=O)O)C(C)C [C90] (H-HHHHHHDTSRMEEVD-OH) | 4.8 | 48.6 | without much change in the second melting point; also recorded: without affecting the second melting point | 70 ± 32 | very similar to the reported dissociation constant of FKBP38-MEEVD peptide |  |
| H-DDDDDDDDDD-OH [control peptide, reference compound] |  |  |  |  |  | did not lead to any change in the melting point of FKBP51 |
